The subject of data set [1] is Primary human umbilical vein endothelial cells (HUVECs). Put plainly: Cell viability of HUVECs in 2D culture with SOx (PrestoBlue). In kind it is cell-based. Particulars: SOx concentrations lower than 0.1% in the culturing medium, 48 hours, FIG. 2C. On the procedure: Primary human umbilical vein endothelial cells (HUVECs) (Angio-Proteomie) were maintained in Endothelial Growth Medium (EGM-2) (Lonza) supplemented with an additional 1.5% (v/v) fetal bovine serum (FBS) (Biological Industries). Daily, PrestoBlue™ Cell Viability Reagent (Invitrogen) was added and cells were incubated for a fixed time interval. The medium was then transferred to a clean, opaque tissue culture well plate and fresh medium was added to the cells. The fluorescence was measured at 560/590 nm (Infinite M200 Pro).
Cells were incubated for 48 hours in 2D culture in order to allow toxic effects to become discernable. Data are presented in FIG. 2C as mean±standard deviation (SD), n=4.

Data set [2] in a line: Rheological testing, shear thinning of hydrogel. It counts as physicochemical, porcine. As to conditions: 37° C., FIG. 2D. On the procedure:
Rheological measurements were performed using a Discovery HR-3 Hybrid Rheometer (TA Instruments, DE) with a 20 mm diameter parallel plate geometry and a Peltier plate to maintain the sample temperature. Shear thinning experiments were performed by varying the strain rate while maintaining a fixed strain of 20%.
The mechanical properties of an exemplary native ECM-based hydrogel and of cross-linked hydrogels were assessed by rheological measurements. Shear thinning Measurements were conducted at 37° C. Data are presented as mean±SD, n=3. P-values were calculated using a Comparison of Fits test with an Extra Sum of Squares F-test.

The conditions of data set [3]: previous studies; cells added after crosslinking; cited from earlier work.
Data set [4] is described as follows: Compressive (bulk) modulus of hydrogel. It counts as physicochemical, porcine. Particulars: compression, FIG. 2E. On the procedure:
The compressive modulus measurements were performed using a Discovery HR-3 Hybrid Rheometer (TA Instruments, DE) with a 20 mm diameter parallel plate geometry and a Peltier plate to maintain the sample temperature. Bulk modulus tests were performed by compressing the samples at a fixed rate of 100 μm s^−1.
Alongside the rheological testing, the bulk mechanical properties of the hydrogel were also assessed. Samples were compressed, and the linear elastic modulus was calculated. Data are presented as mean±SD, n=3.

For data set [5] the following is noted: ninhydrin absorbance normalized to control, FIG. 2F.
Procedure: Aliquots of hydrogel (1 mL) were taken and either reacted with SOx or used as a control. Samples were lyophilized and then immersed in a 0.05% acetic acid solution (1 mL). To this was added 2% Ninhydrin in ethanol (w/v) (1 mL). The mixture was boiled for 90 minutes. Aliquots were taken and the absorbance of the solution was recorded at 570 nm (Infinite M200 Pro; Tecan, Switzerland).
To determine the ability of SOx to react with an ECM-based hydrogel, the concentration of amine groups present in the ECM before and after exposure to the Sox was assessed. […] Data are presented as mean±SD, n=4. All values were normalized to the average value of the control group. P-values were calculated using a one-tailed, unpaired, parametric t-test assuming that all samples have the same distribution.

These results are taken from US20250361480A1, “REINFORCED ENGINEERED CELLULARIZED-TISSUE” (Ramot at Tel-Aviv University Ltd., priority 2023, published 2025).

Turning to Oxidized sucrose [SOx], in data set [1], the “impact on cell viability” value is recorded as “no impact on cell viability”. The “gel viscosity, further change when increasing the SOx concentration” value in data set [2] (SOx raised from 0.03% to 0.07%) is reported as “smaller increase”. For the same substance, the “gel viscosity versus control gel” value in data set [2] (hydrogel cross-linked with 0.03% SOx) is “large increase in gel viscosity”. The “toxicity when used to cross-link non-cellularized scaffolds” value in data set [3] is “reduced toxicity profile”. Moreover, in data set [4], the “hydrogel bulk modulus (linear elastic modulus) with and without exposure to SOx” value was “significant reinforcement of the hydrogel”. Also, in data set [5], the “amines of the hydrogel that had reacted with the cross-linker” value is on record as 46%.
